Patent publication US20250332212A1, “METHOD FOR TREATING OR PREVENTING ALOPECIA” (Suzhou Mingren Pharmaceutical Biotechnology Co., Ltd., priority 2024, published 2025)
Square brackets hold non-standard residues; d marks the D form. Ends that are not written are not given here. pS = N[C@@H](COP(=O)(O)O)C(=O)O

Key:
Wnt10b = Wnt10b expression in skin tissue (qPCR, Western blotting); assay type: in vivo, mouse
Procedure: To illustrate the regulation of JP1 on the upstream Wnt ligand of β-catenin, this example intersected classical signaling pathway-related Wnt ligands and AGA-related Wnt ligands, and screened out the related Wnt ligands, including Wnt1, Wnt3a, Wnt7b, Wnt10a, and Wnt10b. In this example, qPCR was used to detect the mRNA expression of these Wnt molecules in the skin tissue of the mouse model in Example 6.
(§1) 4.1) Protein extraction: 70 mg of skin tissue was placed in a 1.5 mL centrifuge tube, and 500 μL of tissue lysate RIPA containing protease inhibitor and phosphatase inhibitor was added. The tissue was placed on an ice box, pulverized by a tissue grinder, and then ultrasonically crushed to obtain a tissue suspension, which was then placed in a rotary windmill at 4° C. to be lysed for 2 h. The centrifuge was set at 12,000×g, 4° C., centrifuged for 15 min, and the supernatant was collected as the total protein.
5.1) Heating of protein samples: the total protein content of each tissue was 50 μg; calculate the volume of a corresponding protein sample, make up the volume with saline to 16 μL, then add 4 μL of 5×SDS sampling buffer, heat at 100° C. for 5 min, and then cool at room temperature and store at −20° C. […]
(§2) 7.3) Relative mRNA expression levels of genes were calculated by the […] relative quantification method using GAPDH as an internal reference.

SP1 = SP1 expression in skin tissue (qPCR, immunoblotting, immunofluorescence); assay type: in vivo, mouse
Procedure: as §1
5.1) Heating of protein samples: the total protein content of each tissue was 50 μg; calculate the volume of a corresponding protein sample, make up the volume with saline to 16 μL, then add 4 μL of 5×SDS sampling buffer, heat at 100° C. for 5 min, and then cool at room temperature and store at −20° C.
(§3) 7.1) Dilute the specific gene amplification primers to 10 µM in ddH2O, prepare the qPCR reaction system according to the instructions in the kit and add them sequentially into a 384-well plate.
as §2
9.5) Primary antibody incubation: the tissue was circled by the histochemical pen, about 50 μL of primary antibody was added dropwise to the tissue, and incubated in a wet box overnight at 4° C., washed 3 times with PBS.

E2F1 = assay: qPCR of E2F1 mRNA in skin tissue; assay type: in vivo, mouse; conditions: after JP1 intervention, P<0.01
Procedure: as §3, §2

[1] = JP1 permeability experiment (FITC-JP1 applied to depilated skin); conditions: 1% FITC-JP1 solution applied to dorsal depilated area
Procedure: In this Example, to elucidate the mechanism of JP1 penetrating the skin and acting on the hair follicle, a 14-day AGA modeling was performed according to the model design strategy of Example 1 above. Thereafter, a 1% FITC-JP1 solution was applied to the dorsal depilated area of the mice in a light-avoidance environment. Five time points were set at 0.5, 1, 2, 4 and 8 h for observation. The fresh skin tissue was made into frozen sections, and the penetration pathway of JP1 in the skin tissue and the amount of aggregation in the hair follicles were observed under an inverted fluorescence microscope.
15 C57BL/6J male mice were dorsally depilated after two weeks of continuous TP injection. A 1% FITC-JP1 solution was applied locally to the depilated area of the mice on the 1st day after depilation, no light, in five groups of 0.5 h, 1 h, 2 h, 4 h and 8 h (n=3).
The back skin was removed at the corresponding time points and fixed in 4% paraformaldehyde. After 48 h of fixation, the skin tissue was successively dehydrated in 20% and 30% sucrose solution for 2 days each. After gradient dehydration, sections (20 μm) were made using a frozen microtome. Zeiss inverted fluorescence microscope was used to photograph the fluorescent sections.

With FPGSDRF-RGD (FPG[pS]DRFRGD) [JP1] the Wnt10b protein expression (Wnt10b; Western blotting, dose-dependent) was “significantly up-regulated”, the “Wnt10b mRNA expression” value (Wnt10b; qPCR, P<0.05) was “elevated with a dose-effect relationship” and the SP1 immunofluorescence (SP1) was “consistent with the protein immunoblotting results”. The “SP1 protein expression level” value (SP1; immunoblotting) was “elevated trend”, the “SP1 mRNA expression” value (SP1; qPCR) was “high expression” and the “SP1 mRNA expression level, 1% JP1 group vs 0.1% JP1 group” value (SP1; qPCR, P<0.05) was “significantly higher than that in the 0.1% JP1 group”. For the same substance, the “E2F1 mRNA level expression” value (E2F1) was “elevated”, the “fluorescence brightness at 8 h” value [1] was “obviously weakened” and the “distribution of the drug in skin at 0.5 h” value ([1]; fluorescence) was “basically covered the surface of the skin”.
